Test results reported in patent publication US20230085307A1, “PYRIDAZINONE COMPOUND AND HERBICIDE” (NISSAN CHEMICAL CORPORATION, priority 2019, published 2023).

Columns and labels:
[1] = test system: late watergrass; experiment: Test Example 2: herbicidal activity, application during weed generation under submerged conditions (Table 17, symbol A); type: in vivo, late watergrass (Echinochloa oryzicola); conditions: application during weed generation, submerged conditions
Outline: (§1)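 Wagner pot, alluvial soil, 4 cm flood; mixed sowing of all species; greenhouse 25° C.–30° C. Emulsifiable formulation, water-diluted to predetermined dose, applied to paddy water at 1–2 leaf stage. Effect rated at 3 wk using the earlier test's scoring criteria.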

[2] = test system: Japanese bulrush; experiment: Test Example 2: herbicidal activity, application during weed generation under submerged conditions (Table 17, symbol B); type: in vivo, Japanese bulrush (Schoenoplectus juncoides); conditions: application during weed generation, submerged conditions
Outline: as §1

[3] = test system: barnyard grass; experiment: Test Example 3: herbicidal effect by foliage application, Wagner pot (Table 18, symbol H); type: in vivo, barnyard grass (Echinochloa crus-galli)
Outline: (§2)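 Plants were sown in alluvial soil held under 0.1–0.5 cm standing water and grown 14 days in a greenhouse at 25–30 °C. An emulsifiable formulation, water-diluted to the set dose, was then sprayed onto the foliage, and effects were scored three weeks later using previously defined criteria.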

[4] = test system: rice flat sedge; experiment: Test Example 3: herbicidal effect by foliage application, Wagner pot (Table 18, symbol E); type: in vivo, rice flat sedge (Cyperus iria)
Outline: as §2

[5] = test system: southern crabgrass; experiment: Test Example 4: herbicidal effect by soil treatment (Table 19, symbol F); type: in vivo, southern crabgrass (Digitaria ciliaris)
Outline: (§3)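 Herbicidal effect was rated 3 weeks after treatment, using the scoring criteria of an earlier test. The compound, formulated as an emulsion and diluted in water to a set herbicide amount, had been sprayed uniformly on soil over freshly sown seeds. Growth took place in a greenhouse at 25° C. to 30° C.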

[6] = test system: green foxtail; experiment: Test Example 4: herbicidal effect by soil treatment (Table 19, symbol G); type: in vivo, green foxtail (Setaria viridis)
Outline: as §3

[7] = test system: barnyard grass; experiment: Test Example 4: herbicidal effect by soil treatment (Table 19, symbol H); type: in vivo, barnyard grass (Echinochloa crus-galli)
Outline: as §3

[8] = test system: wild oat; experiment: Test Example 4: herbicidal effect by soil treatment (Table 19, symbol I); type: in vivo, wild oat (Avena fatua)
Outline: as §3

[9] = test system: Italian ryegrass; experiment: Test Example 4: herbicidal effect by soil treatment (Table 19, symbol K); type: in vivo, Italian ryegrass (Lolium multiflorum)
Outline: as §3

[10] = test system: velvetleaf; experiment: Test Example 4: herbicidal effect by soil treatment (Table 19, symbol M); type: in vivo, velvetleaf (Abutilon theophrasti)
Outline: as §3

[11] = test system: redroot pigweed; experiment: Test Example 4: herbicidal effect by soil treatment (Table 19, symbol N); type: in vivo, redroot pigweed (Amaranthus retroflexus)
Outline: as §3

[12] = test system: lambsquarters; experiment: Test Example 4: herbicidal effect by soil treatment (Table 19, symbol O); type: in vivo, lambsquarters (Chenopodium album)
Outline: as §3

[13] = test system: chickweed; experiment: Test Example 4: herbicidal effect by soil treatment (Table 19, symbol P); type: in vivo, common chickweed (Stellaria media)
Outline: as §3

[14] = test system: southern crabgrass; experiment: Test Example 5: herbicidal effect by foliage application, plastic box (Table 20, symbol F); type: in vivo, southern crabgrass (Digitaria ciliaris); conditions: foliage application, 3 weeks after application
Outline: (§4)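 Foliar spray test: emulsion formulation diluted in water to a set application rate, sprayed onto 14-day-old plants raised in diluvial soil at 25° C to 30° C under glass. Both herbicidal effect and crop effect rated visually three weeks later.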

[15] = test system: barnyard grass; experiment: Test Example 5: herbicidal effect by foliage application, plastic box (Table 20, symbol H); type: in vivo, barnyard grass (Echinochloa crus-galli); conditions: foliage application, 3 weeks after application
Outline: as §4

[16] = test system: wild oat; experiment: Test Example 5: herbicidal effect by foliage application, plastic box (Table 20, symbol I); type: in vivo, wild oat (Avena fatua); conditions: foliage application, 3 weeks after application
Outline: as §4

[17] = test system: blackgrass; experiment: Test Example 5: herbicidal effect by foliage application, plastic box (Table 20, symbol J); type: in vivo, blackgrass (Alopecurus myosuroides); conditions: foliage application, 3 weeks after application
Outline: as §4

[18] = test system: Italian ryegrass; experiment: Test Example 5: herbicidal effect by foliage application, plastic box (Table 20, symbol K); type: in vivo, Italian ryegrass (Lolium multiflorum); conditions: foliage application, 3 weeks after application
Outline: as §4

[19] = test system: windgrass; experiment: Test Example 5: herbicidal effect by foliage application, plastic box (Table 20, symbol L); type: in vivo, windgrass (Apera spica-venti); conditions: foliage application, 3 weeks after application
Outline: as §4

[20] = test system: lambsquarters; experiment: Test Example 5: herbicidal effect by foliage application, plastic box (Table 20, symbol O); type: in vivo, lambsquarters (Chenopodium album); conditions: foliage application, 3 weeks after application
Outline: as §4

[21] = test system: persian speedwell; experiment: Test Example 5: herbicidal effect by foliage application, plastic box (Table 20, symbol R); type: in vivo, Persian speedwell (Veronica persica); conditions: foliage application, 3 weeks after application
Outline: as §4

CCCC(=O)Oc1c(C)nn(C)c(=O)c1-c1c(-c2ccc(C)cc2)sc2ccc(F)cc12 [2-013]
herbicidal effect rating, A: late watergrass ([1]; AAH 320 g/ha): 4 (Herbicidal rate of 70% or more and less than 90%) | herbicidal effect rating, B: Japanese bulrush ([2]; AAH 320 g/ha): 2 (Herbicidal rate of 20% or more and less than 40%) | herbicidal effect on H (barnyard grass), rating 0-5 ([3]; 320 g/ha): 5 (Herbicidal rate of 90% or more (almost completely withered)) | herbicidal effect on E (rice flat sedge), rating 0-5 ([4]; 320 g/ha): 5 (Herbicidal rate of 90% or more (almost completely withered)) | herbicidal effect rating, F: southern crabgrass ([5]; 320 g/ha): 5 (Herbicidal rate of 90% or more (almost completely withered)) | herbicidal effect rating, G: green foxtail ([6]; 320 g/ha): 5 (Herbicidal rate of 90% or more (almost completely withered)) | herbicidal effect rating, H: barnyard grass ([7]; 320 g/ha): 4 (Herbicidal rate of 70% or more and less than 90%) | herbicidal effect rating, I: wild oat ([8]; 320 g/ha): 0 (Herbicidal rate of 5% or less (almost no effect)) | herbicidal effect rating, K: Italian ryegrass ([9]; 320 g/ha): 4 (Herbicidal rate of 70% or more and less than 90%) | herbicidal effect rating, M: velvetleaf ([10]; 320 g/ha): 3 (Herbicidal rate of 40% or more and less than 70%) | herbicidal effect rating, N: redroot pigweed ([11]; 320 g/ha): 4 (Herbicidal rate of 70% or more and less than 90%) | herbicidal effect rating, O: lambsquarters ([12]; 320 g/ha): 5 (Herbicidal rate of 90% or more (almost completely withered)) | herbicidal effect rating, P: chickweed ([13]; 320 g/ha): 3 (Herbicidal rate of 40% or more and less than 70%) | effect on southern crabgrass (F) ([14]; 320 g/ha): 5 (Herbicidal rate of 90% or more (almost completely withered)) | effect on barnyard grass (H) ([15]; 320 g/ha): 5 (Herbicidal rate of 90% or more (almost completely withered)) | effect on wild oat (I) ([16]; 320 g/ha): 0 (Herbicidal rate of 5% or less (almost no effect)) | effect on blackgrass (J) ([17]; 320 g/ha): 1 (Herbicidal rate of 5% or more and less than 20%) | effect on Italian ryegrass (K) ([18]; 320 g/ha): 4 (Herbicidal rate of 70% or more and less than 90%) | effect on windgrass (L) ([19]; 320 g/ha): 3 (Herbicidal rate of 40% or more and less than 70%) | effect on lambsquarters (O) ([20]; 320 g/ha): 4 (Herbicidal rate of 70% or more and less than 90%) | effect on persian speedwell (R) ([21]; 320 g/ha): 5 (Herbicidal rate of 90% or more (almost completely withered))

COc1ccc(-c2sc3ccc(F)cc3c2-c2c(O)c(C)nn(C)c2=O)cc1 [2-026]
herbicidal effect rating, A: late watergrass ([1]; AAH 320 g/ha): 1 (Herbicidal rate of 5% or more and less than 20%) | herbicidal effect rating, B: Japanese bulrush ([2]; AAH 320 g/ha): 4 (Herbicidal rate of 70% or more and less than 90%) | herbicidal effect on H (barnyard grass), rating 0-5 ([3]; 320 g/ha): 5 (Herbicidal rate of 90% or more (almost completely withered)) | herbicidal effect on E (rice flat sedge), rating 0-5 ([4]; 320 g/ha): 5 (Herbicidal rate of 90% or more (almost completely withered)) | herbicidal effect rating, F: southern crabgrass ([5]; 320 g/ha): 4 (Herbicidal rate of 70% or more and less than 90%) | herbicidal effect rating, G: green foxtail ([6]; 320 g/ha): 3 (Herbicidal rate of 40% or more and less than 70%) | herbicidal effect rating, H: barnyard grass ([7]; 320 g/ha): 4 (Herbicidal rate of 70% or more and less than 90%) | herbicidal effect rating, I: wild oat ([8]; 320 g/ha): 3 (Herbicidal rate of 40% or more and less than 70%) | herbicidal effect rating, K: Italian ryegrass ([9]; 320 g/ha): 3 (Herbicidal rate of 40% or more and less than 70%) | herbicidal effect rating, M: velvetleaf ([10]; 320 g/ha): 5 (Herbicidal rate of 90% or more (almost completely withered)) | herbicidal effect rating, N: redroot pigweed ([11]; 320 g/ha): 5 (Herbicidal rate of 90% or more (almost completely withered)) | herbicidal effect rating, O: lambsquarters ([12]; 320 g/ha): 5 (Herbicidal rate of 90% or more (almost completely withered)) | herbicidal effect rating, P: chickweed ([13]; 320 g/ha): 4 (Herbicidal rate of 70% or more and less than 90%) | effect on southern crabgrass (F) ([14]; 320 g/ha): 5 (Herbicidal rate of 90% or more (almost completely withered)) | effect on barnyard grass (H) ([15]; 320 g/ha): 5 (Herbicidal rate of 90% or more (almost completely withered)) | effect on wild oat (I) ([16]; 320 g/ha): 5 (Herbicidal rate of 90% or more (almost completely withered)) | effect on blackgrass (J) ([17]; 320 g/ha): 4 (Herbicidal rate of 70% or more and less than 90%) | effect on Italian ryegrass (K) ([18]; 320 g/ha): 4 (Herbicidal rate of 70% or more and less than 90%) | effect on windgrass (L) ([19]; 320 g/ha): 4 (Herbicidal rate of 70% or more and less than 90%) | effect on lambsquarters (O) ([20]; 320 g/ha): 4 (Herbicidal rate of 70% or more and less than 90%) | effect on persian speedwell (R) ([21]; 320 g/ha): 5 (Herbicidal rate of 90% or more (almost completely withered))

CCCC(=O)Oc1c(C)nn(C)c(=O)c1-c1c(-c2ccccc2OCC)sc2ccc(F)cc12 [2-029]
herbicidal effect rating, A: late watergrass ([1]; AAH 266 g/ha): 3 (Herbicidal rate of 40% or more and less than 70%) | herbicidal effect rating, B: Japanese bulrush ([2]; AAH 266 g/ha): 2 (Herbicidal rate of 20% or more and less than 40%) | herbicidal effect on H (barnyard grass), rating 0-5 ([3]; 266 g/ha): 5 (Herbicidal rate of 90% or more (almost completely withered)) | herbicidal effect on E (rice flat sedge), rating 0-5 ([4]; 266 g/ha): 3 (Herbicidal rate of 40% or more and less than 70%) | herbicidal effect rating, F: southern crabgrass ([5]; 266 g/ha): 3 (Herbicidal rate of 40% or more and less than 70%) | herbicidal effect rating, G: green foxtail ([6]; 266 g/ha): 3 (Herbicidal rate of 40% or more and less than 70%) | herbicidal effect rating, H: barnyard grass ([7]; 266 g/ha): 3 (Herbicidal rate of 40% or more and less than 70%) | herbicidal effect rating, I: wild oat ([8]; 266 g/ha): 3 (Herbicidal rate of 40% or more and less than 70%) | herbicidal effect rating, K: Italian ryegrass ([9]; 266 g/ha): 0 (Herbicidal rate of 5% or less (almost no effect)) | herbicidal effect rating, M: velvetleaf ([10]; 266 g/ha): 0 (Herbicidal rate of 5% or less (almost no effect)) | herbicidal effect rating, N: redroot pigweed ([11]; 266 g/ha): 4 (Herbicidal rate of 70% or more and less than 90%) | herbicidal effect rating, O: lambsquarters ([12]; 266 g/ha): 4 (Herbicidal rate of 70% or more and less than 90%) | herbicidal effect rating, P: chickweed ([13]; 266 g/ha): 3 (Herbicidal rate of 40% or more and less than 70%) | effect on southern crabgrass (F) ([14]; 266 g/ha): 4 (Herbicidal rate of 70% or more and less than 90%) | effect on barnyard grass (H) ([15]; 266 g/ha): 5 (Herbicidal rate of 90% or more (almost completely withered)) | effect on wild oat (I) ([16]; 266 g/ha): 3 (Herbicidal rate of 40% or more and less than 70%) | effect on blackgrass (J) ([17]; 266 g/ha): 1 (Herbicidal rate of 5% or more and less than 20%) | effect on Italian ryegrass (K) ([18]; 266 g/ha): 2 (Herbicidal rate of 20% or more and less than 40%) | effect on windgrass (L) ([19]; 266 g/ha): 1 (Herbicidal rate of 5% or more and less than 20%) | effect on lambsquarters (O) ([20]; 266 g/ha): 3 (Herbicidal rate of 40% or more and less than 70%) | effect on persian speedwell (R) ([21]; 266 g/ha): 5 (Herbicidal rate of 90% or more (almost completely withered))
